Measured values as given in US20230372296A1, “COMPOSITIONS AND METHODS FOR ANXIETY DISORDER TREATMENT” (PSILOBRAIN THERAPEUTICS INC., priority 2020, published 2023).

Tested on: C57BL/6 mice
Assay: elevated plus maze model of anxiety disorder
Assay type: in vivo
Source text: The dosage ranges are based upon our preclinical rodent studies testing the anti-anxiety effects of formula (I) and crocin (across varying doses and combinations) on mouse behavior in the elevated plus maze task (see FIG. 1). The elevated plus maze is one of the most widely used tests for measuring anxiety-like behavior and the anti-anxiety effects of pharmacological agents and is based on the natural aversion of mice for open and elevated areas, as well as their natural spontaneous exploratory activity in novel environments. […] Finally, these dosage ranges, as identified from our preclinical studies are commensurate with clinical dosages safely prescribed in humans.
The elevated plus maze model is a behavioral assay for rodents which has been used to assess the […] effect of pharmacological agents. In the model, anxiety behavior of rodents is assessed by determining the ratio of time spent on the arms relative to the time spent in the closed arms of the elevated plus maze structure. The model relies on rodents' affinity to dark, enclosed spaces.
In the elevated plus model, C57BL/6 mice, aged between 6 and 7 weeks were acclimated for at least five days and assigned randomly to treatment groups. Mice were housed on a 12 hour light/dark cycle. No more than 4 mice were kept in each ventilated cage. Mice were provided with standard rodent chow and water ad libitum. Test compounds were administered through the oral route in a volume of 10 milliliters per kilogram (ml/kg) and were formulated in 0.9% saline. 12 groups of mice were tested in the model, each group consisting of 10 mice. After acclimation, test compositions were administered to the animals in the amounts, in milligram per kilogram of mouse weight (mg/kg) according to table 1.
As shown in the table, Group 1 was administered vehicle only. Groups 2 through 7 were administered various combinations of psilocybin and crocin. Groups 8-12 were administered either psilocybin alone or crocin alone. Behavioral testing was performed between 7-9 days after administration of the compounds.
Testing was performed in dim light of 40 lux. The elevated plus maze consists of two open and two closed arms (arm length: 30 cm; width: 5 cm). Open arms have a small 1 cm edge and the closed arms are bordered by a 15 cm wall. At the beginning of the task, mice were placed in the center of the elevated plus maze facing an open arm. Mice were video tracked while exploring the maze for 5 min. The time spent in the open and closed arms was measured and analyzed.
Comparisons were performed using 1 w-ANOVA, Fisher's LSD test. Significance is shown with a single asterisk if P<0.05, with a double asterisk if P<0.01, and with a triple asterisk if P<0.001.

CC(/C=C/C=C(\C)C(=O)O[C@@H]1O[C@H](CO[C@@H]2O[C@H](CO)[C@@H](O)[C@H](O)[C@H]2O)[C@@H](O)[C@H](O)[C@H]1O)=C\C=C\C=C(C)\C=C\C=C(/C)C(=O)O[C@@H]1O[C@H](CO[C@@H]2O[C@H](CO)[C@@H](O)[C@H](O)[C@H]2O)[C@@H](O)[C@H](O)[C@H]1O [crocin, Crocin]
time in open arms of elevated plus maze vs vehicle (crocin alone 30 mg/kg oral, tested 7-9 days after administration, 5 min): did not show a significant beneficial effect on anxiety
time in open arms of elevated plus maze vs vehicle (crocin alone 50 mg/kg oral, tested 7-9 days after administration, 5 min): did not show a significant beneficial effect on anxiety

CN(C)CCc1c[nH]c2cccc(OP(=O)(O)O)c12 [psilocybin, Psilocybin]
time in open arms of elevated plus maze vs vehicle (psilocybin 0.5 mg/kg and higher, administered on its own): either no changes in mouse behavior were observed, or increased anxiety-like behavior
time in open arms of elevated plus maze vs vehicle (psilocybin alone 0.1 mg/kg oral, tested 7-9 days after administration, 5 min): no significant difference
time in open arms of elevated plus maze vs vehicle (psilocybin alone 0.5 mg/kg oral, tested 7-9 days after administration, 5 min): significant reduction in open arm time
time in open arms of elevated plus maze vs vehicle (psilocybin alone 1 mg/kg oral, tested 7-9 days after administration, 5 min): significant reduction in open arm time
